Test [1] can be described thus: inhibitors of TNFa-induced VCAM1 expression, confirmation, imaging, TNFa stimulus, retest and dose response (AID 1013).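 On cell count: compound on cells 1 h before TNFa then 24 h more.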 Particulars: TNFa-stimulated cells, VCAM1 expression imaging; cell count; at 10 µM; stronger effect = lower value.
Test [2] has as its system TNFa-stimulated cells, VCAM1 expression imaging. The description is as above.

The text below walks through data of PubChem BioAssay AID1013 (Columbia University Molecular Screening Center, 2008).

The source made the active and inactive calls. How the calls were made is not given here. A value given as a limit tells only on which side of the number the result lay.

Regarding `CCC1=Nc2cc(C(=O)NCCCOC)ccc2Sc2ccccc21`, in test [1], the cell count was 34.9%. The IC50 in test [2] is 1.67 µM.
The matching figures for `COc1ccc(S(=O)(=O)Nc2cc3c(C(C)=O)c(C)oc3c3ccccc23)cc1`: 113% and > 10 µM (inactive).
Take `O=Cc1cc2ccccc2nc1SCc1ccc(Cl)cc1`: in test [1], the cell count worked out at 99.9%. Moreover, the IC50 in test [2] was > 10 µM (inactive).
`O=c1c2ccccc2nc(/C=C/c2ccc([N+](=O)[O-])o2)n1CCCO` displayed a cell count in test [1] of 83.1%. Further, the half-inhibitory concentration (IC50) in test [2] was 1.54 µM.
Take `COc1ccc(C(=O)C(CN2CCOCC2)c2ccccc2)cc1` (centres undefined): the cell count in test [1] stood at 73.8%. Also, in test [2], the IC50 was 2.68 µM.
Take `COc1ccc(NS(=O)(=O)c2cc(C)ccc2NC(=O)c2cc(C)oc2C)cc1`: the cell count in test [1] was 71%. Also, in test [2], the IC50 is 3.16 µM.
The matching figures for `NC(=S)N/N=C\c1ccc(-c2cccc(Cl)c2Cl)o1`: 106% and > 10 µM (inactive).
Molecule `CC(/C=N/NC(=O)c1cc(-c2ccncc2)nc2ccccc12)=C\c1ccco1` had a cell count in test [1] of 30.4%. The IC50 in test [2] is 3.6 µM.
For the molecule `CCN(CC)c1ccc2c(c1)OC(N)=C(C#N)C2c1cccnc1` (centres undefined), in test [1], the cell count is 29.8%. In test [2], the half-maximal inhibitory concentration (IC50) is 0.38 µM.
On the same counts, the results for `COc1ccc(-n2nnnc2S(=O)(=O)CC(=O)N2CCCCC2)cc1` are 4.64% and 3.02 µM.
On the same counts, the results for `Cc1ccc(-n2ncc3c(N4CCN(c5ccccc5)CC4)ncnc32)c(C)c1` are 111% and > 10 µM (inactive).
In the case of `C/C=C/COC(=O)c1[nH]c2c(c1C)C(=O)CC(c1ccco1)C2` (centres undefined), the cell count in test [1] worked out at 73.9%. Further, in test [2], the IC50 is > 10 µM (inactive).
As for `CCN(CC)c1ccc2cc(-c3nc4ccccc4n3C)c(=O)oc2c1`, in test [1], the cell count stood at 106%. The IC50 in test [2] is > 10 µM (inactive).
Consider `N#CC1=C(N)Oc2c(ccc3ccccc23)C1c1cccs1` (centres undefined), for which, in test [1], the cell count came to 69.2%. In addition, the IC50 in test [2] is > 10 µM (inactive).
`C=CCSc1nc2ccccc2n1C(=O)/C=C/c1cc(OC)c(OC)c(OC)c1`: in test [1], the cell count was 106%. Besides, in test [2], the IC50 is > 10 µM (inactive).
For `CCCOc1ccc(C(=O)C(CN2CCOCC2)c2ccccc2)cc1` (centres undefined), the cell count in test [1] came to 79.7%. Further, the IC50 in test [2] was 5.2 µM.
In test [1], `CCCCCc1ccc(-c2ccc(=O)[nH]n2)cc1` showed a cell count of 91%. The IC50 in test [2] is 2.49 µM.
In test [1], `O=C(c1ccc([N+](=O)[O-])cc1)N(Cc1ccc(Cl)cc1)N1C(=O)CCCC1=O` had a cell count of 91.5%. Also, the IC50 in test [2] is > 10 µM (inactive).
In the case of `CCCOC(=O)c1[nH]c2c(c1C)C(=O)CC(c1cccs1)C2` (centres undefined), the cell count in test [1] was found to be 89%. In addition, the IC50 in test [2] was > 10 µM (inactive).
In turn, `Cc1ccc(Nc2nc(-c3c(C)nc4ccccn34)cs2)cc1` came in with a cell count in test [1] of 27.9%. Moreover, the concentration for half-maximal inhibition (IC50) in test [2] is 3.8 µM.
Molecule `COC(=O)C[C@]1(C(=O)OC)CN(C#N)N(c2ccc(Cl)cc2)C12c1ccccc1-c1ccccc12` showed a cell count in test [1] of 104%. The IC50 in test [2] is > 10 µM (inactive).
`O=C(c1ccc(Br)cc1)c1cc([N+](=O)[O-])ccc1N1CCCCC1` displayed a cell count in test [1] of 102%. Also, the IC50 in test [2] is > 10 µM (inactive).
The molecule `Cc1cc(=O)oc2cc(OCC3CC(c4ccccc4Cl)=NO3)ccc12` (centres undefined) registered a cell count in test [1] of 106%. The IC50 in test [2] is > 10 µM (inactive).
As for `Cc1cc(C)c(/C=N/NC(N)=O)c(C)c1/C=N/NC(N)=O`, the cell count in test [1] stood at 71.9%. Besides, the 50% inhibitory concentration (IC50) in test [2] was 0.517 µM.
Molecule `O=C(Nc1nccs1)c1cccc(N2C(=O)c3cccc4c([N+](=O)[O-])ccc(c34)C2=O)c1` had a cell count in test [1] of 102%. Also, in test [2], the IC50 is > 10 µM (inactive).
Turning to `Cc1ccc(O)c(NC(=O)C2CC(c3c(F)cccc3Cl)=NO2)c1` (centres undefined), in test [1], the cell count came to 105%. Also, the IC50 in test [2] was > 10 µM (inactive).
Molecule `CCN1/C(=C\C=C\C2=[N+](CC)c3ccccc3C2(C)C)C(C)(C)c2ccccc21` registered a cell count in test [1] of 60.4%. Further, the IC50 in test [2] was 0.41 µM.
On the same counts, the results for `Cc1ccccc1NC1=C/C(=N\S(=O)(=O)c2cccs2)c2ccccc2C1=O` are 99.8% and > 10 µM (inactive).
`CC1CCC/C=C/C2CC(O)CC2C(O)/C=C/C(=O)O1` (centres undefined): the cell count in test [1] amounted to 19.2%. For the same molecule, in test [2], the IC50 was 0.112 µM.
On the same counts, the results for `COc1ccc(-c2cc3ccccc3oc2=O)cc1NC(=O)c1ccc([N+](=O)[O-])o1` are 107% and > 10 µM (inactive).
For the molecule `O=C(c1ccco1)N1CCN(C(=O)N2c3ccccc3Sc3ccccc32)CC1`, the cell count in test [1] stood at 40.3%. Also, in test [2], the IC50 was 3.52 µM.
Turning to `CCSc1nc2ccccc2n1C(=O)/C=C\c1ccc(OC)c(OC)c1`, the cell count in test [1] worked out at 98.3%. The IC50 in test [2] was > 10 µM (inactive).
Molecule `COc1ccc(OC)c(C2C3=C(COC3=O)Nc3cc4c(cc32)OCO4)c1` (centres undefined) returned a cell count in test [1] of 112%. Also, the IC50 in test [2] is > 10 µM (inactive).
Consider `O=S(=O)(c1ccc2c(c1)C(=NO)c1cc(S(=O)(=O)N3CCCCC3)ccc1-2)N1CCCCC1`, for which the cell count in test [1] came out at 118%. Besides, the IC50 in test [2] was > 10 µM (inactive).
In test [1], `Cc1ccc2[nH]c3c(c2c1)CCC3=O` yielded a cell count of 72%. The IC50 in test [2] was 1 µM.
Consider `Cc1cc(NC(=O)CSc2nc(-c3cccs3)cc(C(F)(F)F)n2)no1`, for which, in test [1], the cell count stood at 111%. Further, the IC50 in test [2] was > 10 µM (inactive).
On the same counts, the results for `CCC(=O)Nc1nc(-c2ccccc2)ns1` are 115% and > 10 µM (inactive).
Turning to `Oc1ccc(Nc2nc3ccccc3nc2Nc2ccc(O)cc2)cc1`, the cell count in test [1] was determined as 1.62%. The half-maximal inhibitory concentration (IC50) in test [2] was 3.26 µM.
In test [1], `COc1ccc(C(=O)c2c(C(F)(F)F)oc3c2C(=O)c2ccccc2C3=O)cc1` returned a cell count of 105%. For the same molecule, in test [2], the IC50 is > 10 µM (inactive).
For the molecule `O=[N+]([O-])c1ccc(Sc2nc3ccccc3o2)c([N+](=O)[O-])c1`, the cell count in test [1] came to 106%. Also, the IC50 in test [2] was > 10 µM (inactive).
On the same counts, the results for `CN(C)c1ccc(C(=O)c2ccc(N(C)C)c3ccccc23)cc1` are 27.7% and 1.72 µM.
In the case of `COc1cc(C(=O)N/N=C/c2ccsc2C)cc(OC)c1OC`, the cell count in test [1] turned out to be 48.6%. For the same molecule, the IC50 in test [2] was > 10 µM (inactive).
`Cc1ccc(O)c(NC(=O)CCC2CCCCC2)c1` registered a cell count in test [1] of 113%. Also, the IC50 in test [2] was > 10 µM (inactive).
In test [1], `COc1cc(C2C(C#N)=C(N)Oc3cc(N(C)C)ccc32)cc2c1OCO2` (centres undefined) returned a cell count of 47.6%. For the same molecule, in test [2], the half-inhibitory concentration (IC50) was 5.11 µM.
In turn, `Cc1ccc(C(=O)c2cc([N+](=O)[O-])ccc2N2CCOCC2)c(C)c1` yielded a cell count in test [1] of 41.4%. Further, in test [2], the IC50 was 2.86 µM.
The matching figures for `COc1cc(C(=O)N2CCN(c3cc(Cl)ccc3Cl)CC2)cc(OC)c1OC`: 82.9% and > 10 µM (inactive).
The matching figures for `NC(=S)N/N=C/c1ccc(-c2ccc(Cl)c(Cl)c2)o1`: 93.5% and > 10 µM (inactive).
The molecule `COc1cc2c(O)c3c(c(-c4ccc5c(c4)OCO5)c2cc1OC)C(=O)OC3` returned a cell count in test [1] of 86.8%. The IC50 in test [2] was 3.24 µM.
For the molecule `COc1ccc(C(=O)C(CN2CCCC2)c2ccccc2)cc1` (centres undefined), the cell count in test [1] was 73.4%. Further, in test [2], the half-inhibitory concentration (IC50) was 2.07 µM.
As for `CCc1ccc2oc(-c3cc(N)ccc3O)nc2c1`, the cell count in test [1] was 97.7%. Further, in test [2], the IC50 was > 10 µM (inactive).
On the same counts, the results for `COc1ccc(NC(=O)/C(Cl)=C(/Cl)S(=O)Cc2ccccc2)cn1` (centres undefined) are 34.2% and 1.06 µM.
`O=S(=O)(c1ccc(Cl)cc1)c1snnc1-c1ccccc1` yielded a cell count in test [1] of 71.6%. In addition, the half-inhibitory concentration (IC50) in test [2] is 4.86 µM.
For `O=C(Nc1ccccc1)c1nnsc1S(=O)c1ccc(Cl)cc1` (centres undefined), in test [1], the cell count was found to be 95.6%. In addition, in test [2], the IC50 is > 10 µM (inactive).
Regarding `CC1=C([N+](=O)[O-])C(c2ccccc2)C2=C(N1)c1ccccc1C2=O` (centres undefined), the cell count in test [1] stood at 111%. Besides, in test [2], the IC50 was > 10 µM (inactive).
As for `COc1cc(/C=N/Nc2snc(SC)c2C#N)ccc1O`, in test [1], the cell count stood at 105%. In test [2], the IC50 was > 10 µM (inactive).
`COc1ccc(CS(=O)(=O)/C(Cl)=C(/Cl)C(=O)Nc2ccc(OC)nc2)cc1` had a cell count in test [1] of 2.22%. For the same molecule, the concentration for half-maximal inhibition (IC50) in test [2] was 2 µM.
Take `O=C(N/N=C/C(Br)=C/c1ccccc1)c1n[nH]c2c1CCC2`: the cell count in test [1] is 28.6%. Moreover, in test [2], the 50% inhibitory concentration (IC50) is 0.0993 µM.
On the same counts, the results for `CCOc1ccc(S(=O)(=O)Nc2cc(OC)ccc2OC)cc1` are 45.4% and 1.78 µM.
On the same counts, the results for `O=[N+]([O-])/C=C/c1c(OCc2ccccc2)ccc2ccccc12` are 112% and > 10 µM (inactive).
Molecule `CCC(C)[C@@H](NC(=O)OC(C)(C)C)c1nnc(S(=O)(=O)Cc2cccc(C)c2)o1` (some centres undefined) had a cell count in test [1] of 95.6%. In addition, in test [2], the IC50 was > 10 µM (inactive).
On the same counts, the results for `CCOc1ccc(C2=Nn3c(nnc3-c3ccccc3OC)SC2)cc1` are 32.1% and below 0.1 µM.
Consider `Cc1ccc(-c2nc(NC(=O)c3nn(C)cc3[N+](=O)[O-])sc2C)cc1C`, for which the cell count in test [1] came out at 94.9%. The IC50 in test [2] was > 10 µM (inactive).
In test [1], `O=C1C(=O)c2ccccc2-c2ccccc21` registered a cell count of 44.1%. For the same molecule, in test [2], the concentration for half-maximal inhibition (IC50) was 3 µM.
On the same counts, the results for `CCCOc1ccccc1C1CC(=O)Nc2cc3c(cc21)OCCO3` (centres undefined) are 113% and > 10 µM (inactive).
In test [1], `COc1ccc(C(=O)c2ccc(N(C)C)cc2)c2ccccc12` showed a cell count of 93.2%. For the same molecule, the IC50 in test [2] was > 10 µM (inactive).
Take `CC(C)Oc1ccccc1C1CC(=O)Nc2cc3c(cc21)OCCO3` (centres undefined): the cell count in test [1] was 104%. In addition, in test [2], the IC50 is > 10 µM (inactive).
The matching figures for `CCOC(=O)c1[nH]c(C)c(C(=O)c2cc(F)ccc2F)c1C`: 70.7% and 0.6 µM.
